# Reference: patent publication US20260191768A1, “PHARMACEUTICAL COMPOSITION CONTAINING HIGH CONCENTRATION OF OPIRANSERIN” (VIVOZON, INC., priority 2022, published 2026)
# Counter-ions that a name gives are not always drawn.
# Columns and labels:
# Format in all cases: physicochemical
# [1] = Room temperature stability of dissolved opiranserin hydrochloride; conditions: for Opiranserin hydrochloride concentration, Initial: prepared at 40° C. for 3 hours
# Experimental: Among solvents showing high solubility in Experimental Example 1, the solvents that have no irritation or can minimize irritation when preparing medicines were selected as shown in Table 2. Then, the solubility and short-term room temperature stability of opiranserin hydrochloride according to the concentration content were estimated. Each preparation was prepared by adjusting the solvent according to the concentration, adding an excess amount of opiranserin hydrochloride, and stirring at 40° C. for 3 hours. The preparation was centrifuged, the supernatant was transferred to a glass vial, and stored at room temperature to observe properties and analyze content. Liquid chromatography (HPLC) was used to analyze the content of opiranserin hydrochloride, and sampling was carried out upon completion of preparation and after storage at room temperature for 65 hours.
# [2] = Screening of hydrotropes for improving solubility of opiranserin hydrochloride
# Experimental: After adding 50 mL of water for injection into a 200 mL beaker, a weight of hydrotrope corresponding to the target content was added thereto and stirred at room temperature to completely dissolve it. Then, a weight of opiranserin hydrochloride corresponding to the target concentration was added and stirred at room temperature to completely dissolve it. If it was not completely dissolved in some solvents, the temperature was raised to 40° C. and additional stirring was carried out. When the added materials were completely dissolved, water for injection was added to the beaker to reach the 100 mL mark and further stirred to ensure that the composition was completely mixed. The prepared compositions were filtered using a 0.2 μm syringe filter and then dispensed into vials for injection.
# [3] = Solubility measurement of opiranserin hydrochloride according to solvents (HPLC); conditions: for solubility at 7 days / solubility at 3 h: thermodynamic from solid; for solubility at 7 days: 25° C./7 days
# Experimental: An excess amount of opiranserin hydrochloride was added to the solvents shown in Table 1, stirred under the following conditions, centrifuged and filtered, and the filtrate was diluted. The solubility of the drug was measured using high-performance liquid chromatography (HPLC).
# [4] = Solubility of opiranserin hydrochloride as stated in the description; conditions: solvent not stated; regarded as "sparingly soluble"
# [5] = Solvent 27: 1 w/v % Poloxamer 124
# [6] = Solvent 28: 5 w/v % Poloxamer 124
# [7] = Solvent 29: 1 w/v % Propylene glycol
# [8] = Solvent 30: 5 w/v % Propylene glycol
structure (smiles),measurement,setting,value
"CCCCOc1c(OC)cc(C(=O)NCC2(N(C)C)CCOCC2)cc1OC [Opiranserin hydrochloride, 4-butoxy-N-((4-(dimethylamino)tetrahydro-2H-pyran-4-yl)methyl)-3,5-dimethoxy benzamide]",Change in properties after storage at room temperature for 65 hours,[1]; Solvent 25: 1 w/v % Triacetin,Recrystallization generation
same,"Opiranserin hydrochloride concentration, After storage at room temperature for 65 hours",[1]; Solvent 25: 1 w/v % Triacetin,44.33 mg/mL
same,"Opiranserin hydrochloride concentration, Initial",[1]; Solvent 25: 1 w/v % Triacetin,78.6 mg/mL
same,Change in properties after storage at room temperature for 65 hours,[1]; Solvent 26: 6 w/v % Triacetin,Recrystallization generation
same,"Opiranserin hydrochloride concentration, After storage at room temperature for 65 hours",[1]; Solvent 26: 6 w/v % Triacetin,38.1 mg/mL
same,Change in properties after storage at room temperature for 65 hours,"[1]; Solvent 26: 6 w/v % Triacetin, listed as opiranserin hydrochloride",recrystallization of needle-shaped structure was generated
same,"Opiranserin hydrochloride concentration, Initial",[1]; Solvent 26: 6 w/v % Triacetin,86.1 mg/mL
same,Change in properties after storage at room temperature for 65 hours,[1]; [5],Recrystallization generation
same,"Opiranserin hydrochloride concentration, After storage at room temperature for 65 hours",[1]; [5],41.1 mg/mL
same,"Opiranserin hydrochloride concentration, Initial",[1]; [5],72.1 mg/mL
same,Change in properties after storage at room temperature for 65 hours,[1]; [6],Recrystallization generation
same,"Opiranserin hydrochloride concentration, After storage at room temperature for 65 hours",[1]; [6],42.5 mg/mL
same,"Opiranserin hydrochloride concentration, Initial",[1]; [6],83.8 mg/mL
same,Change in properties after storage at room temperature for 65 hours,[1]; [7],Recrystallization generation
same,"Opiranserin hydrochloride concentration, After storage at room temperature for 65 hours",[1]; [7],34.8 mg/mL
same,"Opiranserin hydrochloride concentration, Initial",[1]; [7],61.8 mg/mL
same,Change in properties after storage at room temperature for 65 hours,[1]; [8],Recrystallization generation
same,"Opiranserin hydrochloride concentration, After storage at room temperature for 65 hours",[1]; [8],34.8 mg/mL
same,"Opiranserin hydrochloride concentration, Initial",[1]; [8],74.0 mg/mL
same,Concentration of opiranserin hydrochloride that could be dissolved,[2]; sodium benzoate used as a hydrotrope,up to 300 mg/mL
same,Concentration of opiranserin hydrochloride that could be stably dissolved,[2]; sodium salicylate used as a hydrotrope,up to 100 mg/mL
same,Concentration of opiranserin hydrochloride that could be stably dissolved,[2]; trisodium citrate dihydrate used as a hydrotrope,up to 100 mg/mL
same,solubility at 7 days,"[3]; 1 w/v % Caprylocaproyl polyoxyl 8 glyceride, 25 °C, aqueous with cosolvent or surfactant or cyclodextrin, Solvent 7: 1 w/v % Caprylocaproyl polyoxyl 8 glyceride",46.2 mg/mL
same,solubility at 7 days,"[3]; 1 w/v % Hydroxpropyl-beta-cyclodextrin, 25 °C, aqueous with cosolvent or surfactant or cyclodextrin, Solvent 10: 1 w/v % Hydroxpropyl-beta-cyclodextrin",49.2 mg/mL
same,solubility at 7 days,"[3]; 1 w/v % Macrogol 15 hydroxystearate, 25 °C, aqueous with cosolvent or surfactant or cyclodextrin, Solvent 8: 1 w/v % Macrogol 15 hydroxystearate",44 mg/mL
same,solubility at 7 days,"[3]; 1 w/v % PEG-6 caprylic/capric glyceride, 25 °C, aqueous with cosolvent or surfactant or cyclodextrin, Solvent 16: 1 w/v % PEG-6 caprylic/capric glyceride",49 mg/mL
same,solubility at 3 h,"[3]; 1 w/v % Poloxamer 124, 40 °C, aqueous with cosolvent or surfactant or cyclodextrin, Solvent 21: 1 w/v % Poloxamer 124, 40° C./3 hours",72.1 mg/mL
same,solubility at 7 days,"[3]; 1 w/v % Polyoxyl 35 castor oil, 25 °C, aqueous with cosolvent or surfactant or cyclodextrin, Solvent 6: 1 w/v % Polyoxyl 35 castor oil",42.1 mg/mL
same,solubility at 7 days,"[3]; 1 w/v % Polysorbate 80, 25 °C, aqueous with cosolvent or surfactant or cyclodextrin, Solvent 9: 1 w/v % Polysorbate 80",44.7 mg/mL
same,solubility at 3 h,"[3]; 1 w/v % Propylene glycol, 40 °C, water, Solvent 23: 1 w/v % Propylene glycol, 40° C./3 hours",61.8 mg/mL
same,solubility at 7 days,"[3]; 1 w/v % Triacetin, 25 °C, water, Solvent 13: 1 w/v % Triacetin",49.7 mg/mL
same,solubility at 3 h,"[3]; 1 w/v % Triacetin, 40 °C, water, Solvent 19: 1 w/v % Triacetin, 40° C./3 hours",78.6 mg/mL
same,solubility at 7 days,"[3]; 3 w/v % Hydroxpropyl-beta-cyclodextrin, 25 °C, aqueous with cosolvent or surfactant or cyclodextrin, Solvent 11: 3 w/v % Hydroxpropyl-beta-cyclodextrin",55.6 mg/mL
same,solubility at 7 days,"[3]; 3 w/v % PEG-6 caprylic/capric glyceride, 25 °C, aqueous with cosolvent or surfactant or cyclodextrin, Solvent 17: 3 w/v % PEG-6 caprylic/capric glyceride",57 mg/mL
same,solubility at 7 days,"[3]; 3 w/v % Triacetin, 25 °C, water, Solvent 14: 3 w/v % Triacetin",57.1 mg/mL
same,solubility at 3 h,"[3]; 5 w/v % Poloxamer 124, 40 °C, aqueous with cosolvent or surfactant or cyclodextrin, Solvent 22: 5 w/v % Poloxamer 124, 40° C./3 hours",83.8 mg/mL
same,solubility at 3 h,"[3]; 5 w/v % Propylene glycol, 40 °C, aqueous with cosolvent or surfactant or cyclodextrin, Solvent 24: 5 w/v % Propylene glycol, 40° C./3 hours",74 mg/mL
same,solubility at 7 days,"[3]; 6 w/v % Hydroxpropyl-beta-cyclodextrin, 25 °C, aqueous with cosolvent or surfactant or cyclodextrin, Solvent 12: 6 w/v % Hydroxpropyl-beta-cyclodextrin",63.3 mg/mL
same,solubility at 7 days,"[3]; 6 w/v % PEG-6 caprylic/capric glyceride, 25 °C, aqueous with cosolvent or surfactant or cyclodextrin, Solvent 18: 6 w/v % PEG-6 caprylic/capric glyceride",67.6 mg/mL
same,solubility at 7 days,"[3]; 6 w/v % Triacetin, 25 °C, aqueous with cosolvent or surfactant or cyclodextrin, Solvent 15: 6 w/v % Triacetin",72.7 mg/mL
same,solubility at 3 h,"[3]; 6 w/v % Triacetin, 40 °C, aqueous with cosolvent or surfactant or cyclodextrin, Solvent 20: 6 w/v % Triacetin, 40° C./3 hours",~86 mg/mL
same,solubility at 7 days,"[3]; 100% Ethanol, 25 °C, organic solvent or mixture, Solvent 2: 100% Ethanol",25.1 mg/mL
same,solubility at 7 days,"[3]; 100% Methanol, 25 °C, organic solvent or mixture, Solvent 3: 100% Methanol",36 mg/mL
same,solubility at 7 days,"[3]; 100% Polyethylene, 25 °C, organic solvent or mixture, Solvent 5: 100% Polyethylene",2.59 mg/mL
same,solubility at 7 days,"[3]; 100% Propylene glycol, 25 °C, organic solvent or mixture, Solvent 4: 100% Propylene glycol",13 mg/mL
same,solubility at 7 days,"[3]; Purified water, 25 °C, water, Solvent 1: Purified water",45.2 mg/mL
same,Opiranserin hydrochloride Solubility,"[3]; Solvent 20: 6 w/v % Triacetin, 40° C./3 hours",86.1 mg/mL
same,solubility,[4],25 mg/mL
